# Ends that are not written are not given here. Peptide text beside a SMILES is read from it.
# What was measured:
# H2O2-induced HUVECs [1] = assay: Viability of H2O2-induced HUVECs (oxidative damage model); assay type: cell-based, human; conditions: for cell viability of H2O2-induced HUVECs: 200 μM pretreatment 24 h, then 300 μM H2O2 24 h, model group 50.31 ± 2.19%, mean ± SD, n = 3, SD
# Protocol: (§1) The viability of HUVECs treated by TRP3, TRP6, TRP9, and TRP12 was determined using MTT method. HUVECs were seeded in the 96-well plates, cultured for 24 h, and treated with ACEi peptides (100, 200, and 300 μM) at 37° C for 24 h. MTT (final content of 2 mg/mL) was added into cell culture. After 4 h, DMSO was added into each well and monitored at 490 nm. The cell viability (% control) was calculated.
# The oxidative damage model of HUVECs was established according to the previous method ([50]). HUVECs were seeded in the 96-well plates, cultured for 24 h, and treated with […] H2O2 at 37°C.
# (§2) The HUVECs were cultured for 24 h in a 96-well plate. Subsequently, the supernatant was aspirated and 20 μL of GSH (200 μM) and ACEi peptides (100 or 200 μM) were added in the protection groups, respectively. After 24 h, ACEi peptides were removed and H2O2 with the final concentration of 300 μM was added into the damage and protection groups for incubating 24 h.
# H2O2-induced HUVECs [2] = assay: MDA content in H2O2-induced HUVECs (assay kit); assay type: cell-based, human; conditions: 200 μM pretreatment, 300 μM H2O2, model 27.94 ± 1.06, mean ± SD, n = 3
# Protocol: as §2
# (§3) The level of ROS was determined using DCFH2-DA assay and expressed as % control ([50]). The levels of SOD (U/mgprot), GSH-Px (U/mgprot), NO (μmol/L), and MDA (nmol/mgprot) were measured using assay kits according to manufacturer’ protocols.
# H2O2-induced HUVECs [3] = assay: NO production in H2O2-induced HUVECs (assay kit); assay type: cell-based, human; conditions: 200 μM pretreatment, 300 μM H2O2, model 15.54 ± 0.68 μM, mean ± SD, n = 3
# Protocol: as §2, §3
# H2O2-induced HUVECs [4] = assay: Apoptosis rate of H2O2-induced HUVECs, Hoechst 33342; assay type: cell-based, human; conditions: 200 μM pretreatment, 300 μM H2O2, model 214.03 ± 7.11% control, mean ± SD, n = 3
# Protocol: as §2
# Cell treatments with ACEi peptides, GSH, and H2O2 were according to the above method ([50]). The morphology of HUVECs was observed and photographed using an inverted microscope (Nikon Corporation, Kyoto, Japan). The percentage of apoptotic HUVECs was analyzed using previous methods ([17], [50]).
# ACE = biological target: T1, ACE (Oryctolagus cuniculus, UniProt P12822); assay: ACE inhibitory (ACEi) activity, FAPGG substrate, hippuric acid by HPLC at 228 nm; assay type: biochemical; conditions: at 1.5 mg/mL, mean ± SD, n = 3
# T1 sequence (P12822 34-1310): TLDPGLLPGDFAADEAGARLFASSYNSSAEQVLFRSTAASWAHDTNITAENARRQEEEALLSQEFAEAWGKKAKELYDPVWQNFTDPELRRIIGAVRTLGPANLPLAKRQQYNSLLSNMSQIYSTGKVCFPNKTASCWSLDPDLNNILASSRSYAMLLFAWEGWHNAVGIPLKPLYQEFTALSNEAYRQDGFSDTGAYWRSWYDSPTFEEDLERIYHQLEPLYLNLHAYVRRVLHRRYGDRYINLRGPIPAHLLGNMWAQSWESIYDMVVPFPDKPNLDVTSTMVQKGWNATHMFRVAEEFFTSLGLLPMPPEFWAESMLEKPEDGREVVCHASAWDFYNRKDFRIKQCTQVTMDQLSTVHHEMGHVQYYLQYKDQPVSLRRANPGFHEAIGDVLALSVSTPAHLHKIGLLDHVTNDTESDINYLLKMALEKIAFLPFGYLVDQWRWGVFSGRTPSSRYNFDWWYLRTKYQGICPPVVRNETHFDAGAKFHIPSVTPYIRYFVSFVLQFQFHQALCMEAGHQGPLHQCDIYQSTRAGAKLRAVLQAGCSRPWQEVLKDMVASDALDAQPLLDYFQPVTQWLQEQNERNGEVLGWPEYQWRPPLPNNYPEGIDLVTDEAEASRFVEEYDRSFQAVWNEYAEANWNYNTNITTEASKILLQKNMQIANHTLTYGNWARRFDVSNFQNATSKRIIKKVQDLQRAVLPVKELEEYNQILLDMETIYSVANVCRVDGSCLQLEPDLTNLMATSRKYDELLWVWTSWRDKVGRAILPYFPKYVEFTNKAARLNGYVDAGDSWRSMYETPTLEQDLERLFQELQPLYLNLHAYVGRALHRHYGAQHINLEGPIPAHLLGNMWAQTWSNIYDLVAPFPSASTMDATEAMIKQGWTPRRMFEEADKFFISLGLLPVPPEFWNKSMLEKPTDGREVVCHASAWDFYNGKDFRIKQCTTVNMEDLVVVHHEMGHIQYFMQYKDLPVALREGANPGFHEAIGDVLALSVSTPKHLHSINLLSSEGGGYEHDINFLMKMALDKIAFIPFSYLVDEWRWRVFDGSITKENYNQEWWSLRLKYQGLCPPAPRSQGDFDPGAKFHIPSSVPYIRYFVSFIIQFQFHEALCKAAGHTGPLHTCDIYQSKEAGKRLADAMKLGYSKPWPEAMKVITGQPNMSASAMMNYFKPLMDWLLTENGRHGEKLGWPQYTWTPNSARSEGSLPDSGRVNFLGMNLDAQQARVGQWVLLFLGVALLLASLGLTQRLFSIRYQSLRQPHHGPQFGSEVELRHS
# Protocol: The ACEi activity was measured by employing FAPGG as the substrate with the following modifications reported by Zhao et al. ([18]). In brief, the initial assay volume consisted of 50 μL of the substrate (3 mM), 50 μL of the ACE enzyme solution containing 1.25 mU of declared enzyme activity, and 50 μL of assay sample. All these solutions were incubated for 30 min at 37°C in a water bath first without mixing and then for an additional 30 min after mixing. ACE activity was stopped by 150 μL of glacial acetic acid. After that, the reaction mixture was separated by HPLC at 228 nm to determine the hippuric acid (HA) content produced due to ACE activity on the substrate. The control reaction mixture contained 50 μL of buffer instead of the assay sample and the control was expected to liberate the maximum amount of HA from the substrate due to uninhibited ACE activity. The percent inhibition of ACE activity was calculated as follows:
# Inhibition activity(%)=[(HAcontrol−HAsample)/HAcontrol]×100%.
# The IC50 value is the concentration of peptide inhibiting 50% activity of ACE.
# H2O2-induced HUVECs [5] = assay: GSH-Px activity in H2O2-induced HUVECs (assay kit); assay type: cell-based, human; conditions: 200 μM pretreatment, 300 μM H2O2, model 26.95 ± 1.09, mean ± SD, n = 3
# Protocol: as §2, §3
# HUVECs [6] = assay: ET-1 secretion in HUVECs (assay kit); assay type: cell-based, human; conditions: for ET-1 content in NE-treated HUVECs: peptide 200 μM plus NE, NE alone 73.57 ± 3.09 pg./mL; for ET-1 content in HUVECs: peptide 200 μM, control 55.37 ± 2.53 pg./mL, mean ± SD, n = 3, SD
# Protocol: (§4) HUVECs were cultured in DMEM supplemented with 100 µg/mL streptomycin, 10% FBS (v/v), and 100 U/mL penicillin at 37°C in a humidified 5% CO2 atmosphere for 24 h.
# (§5) After treating with ACEi peptides (TRP3, TRP6, TRP9, or TRP12, respectively) for 24 h, NO and ET-1 contents were separately determined by employing human NO and ET-1 assay kit as per manufactures’ protocol ([18]).
# HUVECs [7] = assay: NO production in HUVECs (assay kit); assay type: cell-based, human; conditions: for NO content in NE-treated HUVECs: peptide 200 μM plus NE, NE alone 18.59 ± 0.82 μM; for NO level in HUVECs: peptide 200 μM, 24 h, control 33.68 ± 0.96 μM, mean ± SD, n = 3, SD
# Protocol: as §4, §5
# H2O2-induced HUVECs [8] = assay: SOD activity in H2O2-induced HUVECs (assay kit); assay type: cell-based, human; conditions: 200 μM pretreatment, 300 μM H2O2, model 108.57 ± 7.56, mean ± SD, n = 3
# Protocol: as §2, §3
# H2O2-induced HUVECs [9] = assay: ROS level in H2O2-induced HUVECs, DCFH2-DA assay; assay type: cell-based, human; conditions: 200 μM pretreatment, 300 μM H2O2, model 146.6 ± 3.81%, mean ± SD, n = 3
# Protocol: as §2, §3
# HUVECs [10] = assay: Viability of HUVECs, MTT method; assay type: cell-based, human
# Protocol: as §4, §1
Molecule,cell viability of H2O2-induced HUVECs (H2O2-induced HUVECs [1]),MDA content (H2O2-induced HUVECs [2]),NO content (H2O2-induced HUVECs [3]),total apoptosis ratio (H2O2-induced HUVECs [4]),viability of HUVECs (H2O2-induced HUVECs [1]; H2O2 300 μM alone (model establishment)),ACEi rate (ACEi activity) (ACE),GSH-Px activity (H2O2-induced HUVECs [5]),ET-1 content in NE-treated HUVECs (HUVECs [6]),ET-1 content in HUVECs (HUVECs [6]),NO content in NE-treated HUVECs (HUVECs [7]),NO level in HUVECs (HUVECs [7]),SOD activity (H2O2-induced HUVECs [8]),ROS level (H2O2-induced HUVECs [9]),"cell viability (HUVECs [10]; 300 μM, 24 h, MTT, % control, mean ± SD, n = 3)","cell viability (HUVECs [10]; 300 µM, SD)"
"N[C@@H](CCC(=O)N[C@@H](CS)C(=O)NCC(=O)O)C(=O)O [GSH, Glutathione, reference compound]",78.33 ± 3.08%,17.83 ± 0.87 nmol/mg prot,26.98 ± 1.05 µM,124.52 ± 4.82 % control,,,,,,,,,,,
OO [H2O2],,,,,49.65 ± 1.68%,,,,,,,,,,
"CC[C@H](C)[C@H](N)C(=O)N[C@@H](CCCCN)C(=O)N[C@@H](CO)C(=O)N[C@@H](Cc1c[nH]c2ccccc12)C(=O)O [TRP6, Ile-Lys-Ser-Trp] (H-IKSW-OH; N-terminus and C-terminus assumed)",,20.52 ± 0.92 nmol/mg prot,21.26 ± 0.59 µM,171.21 ± 6.92 % control,,75.41 ± 2.56%,42.35 ± 1.86 U/mg prot,55.27 ± 2.19 pg/mL,44.68 ± 1.69 pg/mL,26.51 ± 1.06 µM,46.25 ± 1.39 µM,160.02 ± 9.04 U/mg prot,127.5 ± 4.32 % control,,
"CSCC[C@H](NC(=O)[C@H](Cc1c[nH]cn1)NC(=O)[C@H](CO)NC(=O)[C@@H](N)Cc1ccc(O)cc1)C(=O)O [TRP9, Tyr-Ser-His-Met] (H-YSHM-OH)",67.85 ± 3.05%,19.88 ± 0.75 nmol/mg prot,23.64 ± 0.82 µM,135.37 ± 4.28 % control,,83.49 ± 3.42%,45.36 ± 2.07 U/mg prot,53.27 ± 2.34 pg/mL,41.26 ± 2.09 pg/mL,28.79 ± 0.78 µM,50.34 ± 1.45 µM,,122.4 ± 4.47 % control,91.27 ± 4.05%,
"H-WGESF-OH [TRP3, Trp-Gly-Glu-Ser-Phe]",,21.76 ± 0.94 nmol/mg prot,20.38 ± 0.67 µM,173.12 ± 5.11 % control,,69.54 ± 3.09%,38.46 ± 1.25 U/mg prot,59.74 ± 2.42 pg/mL,46.87 ± 2.03 pg/mL,23.69 ± 1.18 µM,46.52 ± 1.29 µM,154.58 ± 3.94 U/mg prot,128.7 ± 5.2 % control,,86.72 ± 4.45%
"WSPGF [TRP12, Trp-Ser-Pro-Gly-Phe]",,21.08 ± 0.92 nmol/mg prot,22.09 ± 0.81 µM,162.08 ± 5.94 % control,,78.24 ± 2.81%,39.75 ± 1.63 U/mg prot,54.71 ± 2.57 pg/mL,45.28 ± 1.88 pg/mL,26.79 ± 1.34 µM,46.32 ± 2.03 µM,,123.7 ± 3.21 % control,,

# From publication PMC10369073, “Production, identification, in silico analysis, and cytoprotection on H2O2-induced HUVECs of novel angiotensin-I-converting enzyme inhibitory peptides from Skipjack tuna roes” (Frontiers in Nutrition, 2023)
